Earlier results in patent US10092644B2, “Use of fluorinated cyclic dinucleotides as oral vaccine adjuvants” (BROCK UNIVERSITY, priority 2013, dated 2018).

Tested on: S. penuemoniae pneumolysin toxid (PdB) or pneumococal surface protection (PspA)
Conditions: mice, interperitoneally, PdB or PspA adjuvanted with c-di-GMP (Chen et al. 2010; Ogunniyi et al. 2008); cited from earlier work

For `Nc1nc2c(ncn2C2OC3COP(=O)(O)OC4C(COP(=O)(O)OC3C2O)OC(n2cnc3c(=O)[nH]c(N)nc32)C4O)c(=O)[nH]1` (stereo not shown) [c-di-GMP, 3′,5′-cyclic diguanylic acid], the antigen-specific antibody response is listed as “enhanced”.
